Consider one molecule from patent US20030190368A1, “METHODS OF DIAGNOSIS AND TRIAGE USING CELL ACTIVATION MEASURES” (priority 1998, published 2003).

The subject of one data set is neutrophils. Conditions: cited from earlier work.
The test system of a further data set is human neutrophils. Kind of data set: Neutrophil response to fluid shear-stress in vitro. Type of data set: cell-based. The protocol: In these experiments the shear-stress was kept sufficiently low (˜1 dyn/cm2) to avoid significant viscoelastic cell deformation. Fresh leukocytes from pin-pricked blood of healthy volunteers were collected in Vacutainer tubes (sodium heparin pre-treated, Becton Dickinson, Franklin Lakes, N.J.). The red blood cells were allowed to sediment at room temperature for about 30 minutes. The supernatant mixture of 1 part platelets and leukocytes was resuspended in 20 parts Plasma Lyte (Baxter Healthcare Corp., Deerfield, Ill.). Neutrophils, monocytes and lymphocytes were identified by their morphology (125× magnification). All experiments were performed within four hours following blood collection.
100 μl of the cell preparation was deposited into a small chamber with a transparent bottom on an inverted microscope (Leitz Diavert, Germany) with a 50× objective. […]
Filmed neutrophils presented various responses to shear-stress. In order to quantify the results neutrophil response was divided into three categories: […]

For another data set, the system named is rats. Kind of data set: Bolus injection of pancreatic homogenate (mock SAO shock). Type of data set: in vivo. The procedure:
A bolus injection of incubated pancreatic homogenate was tested for its ability to lead to circulatory shock in the rat. The ability of Futhan pretreatment to mitigate shock induced in this manner was also tested. A mock SAO shock protocol was repeated as previously described, with either 60 min Futhan or saline pretreatment and a 2 ml bolus injection of either pancreatic homogenate or low-molecular weight pancreatic homogenate injected in lieu of arterial clamping.
The SAO shock experiments were repeated with the bolus injection of pancreatic homogenate in an effort to simulate the “unclamping” of the arteries and liberation of pancreatic components into the circulation instead of the actual ischemia/reperfusion of the splanchnic region. The low-molecular weight (2 ml) as well whole homogenate (2 ml) were tested for their ability to induce hypotension and cause circulatory shock. The ability of Futhan to counter the effects of the injection of pancreatic homogenate was also tested as in the SAO shock protocol. At the termination of these experiments arterial blood was drawn for the determination of plasma peroxide concentration using the peroxide electrode measurement technique.

For the molecule `CS(=O)(=O)O.CS(=O)(=O)O.N=C(N)Nc1ccc(C(=O)Oc2ccc3cc(C(=N)N)ccc3c2)cc1` [Futhan, 6-amidino-2-naphthyl p-guanidinobenzoate dimethanesulfonate], the free radical scavenging result in the data set with neutrophils was “does not possess any free radical scavenging effects”. Further, the “zymosan-induced chemiluminescence activation by neutrophils” value with neutrophils (in vitro) is reported as “inhibited zymosan-induced chemiluminescence activation by neutrophils”. The “effect of Futhan on neutrophil activation in shear-stress test” value in the data set with human neutrophils (10 μl Futhan 0.05 and 0.13 mg/ml in 5% glucose + 10 μl pig pancreatic homogenate + 80 μl cells) was “slightly pro-inflammatory effect”. In addition, the “complete response to shear stress of Futhan-treated neutrophils” value in the data set with human neutrophils (Futhan 0.05 and 0.13 mg/ml + pig pancreatic homogenate) is on record as “no Futhan-treated neutrophil exhibited a complete response”. Besides, the “mortality after pancreatic homogenate injection in Futhan-pretreated rats” value with rats (60 minute post-injection observation period, Futhan 3.3 mg/kg body wt/hr) is listed as “None of the Futhan-treated group died”. In addition, the “MAP after pancreatic homogenate injection in Futhan-pretreated rats” value in the data set on rats (Futhan 3.3 mg/kg body wt/hr) is “MAP returned to nearly initial values”. Besides, in the data set on rats (infusion pump 3.3 mg/kg body wt/hr), the “blood pressure effect of Futhan infusion pretreatment” value was “depression of MAP”.
